Assay results published in patent publication US8680159B2, “Bradykinin 1 receptor modulating compounds” (Gruenenthal GmbH, priority 2010, dated 2014).

Tests used:
[1] = target: T1, human B1R receptor (CHO K1 cells stably transfected with the human B1R gene) (Homo sapiens, UniProt P46663); experiment: Functional study on the bradykinin receptor 1 (B1R), Ca2+ fluorescence (Fluo-4) FLIPR/Novostar assay, hB1R cells; assay type: cell-based; details: CHO-K1, read-out: % inhibition (human B1R) at 10 μM
T1 construct: expressed in transfected cells; host or cells: CHO K1 cells (Chinese hamster ovary), stably transfected
T1 sequence (P46663 1-353): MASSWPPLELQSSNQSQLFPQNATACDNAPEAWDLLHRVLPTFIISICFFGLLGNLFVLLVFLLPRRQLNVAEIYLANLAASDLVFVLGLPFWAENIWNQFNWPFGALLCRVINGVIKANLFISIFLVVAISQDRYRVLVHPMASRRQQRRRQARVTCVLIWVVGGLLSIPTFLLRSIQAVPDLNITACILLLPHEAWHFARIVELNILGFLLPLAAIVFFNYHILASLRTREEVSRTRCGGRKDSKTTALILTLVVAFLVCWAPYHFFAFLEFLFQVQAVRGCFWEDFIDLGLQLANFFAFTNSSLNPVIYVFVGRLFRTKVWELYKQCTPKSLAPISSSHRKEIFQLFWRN
Outline: (§1)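 Stably transfected CHO K1 cells carrying human or rat B1R were Fluo-4 loaded and Ca2+ fluorescence read by FLIPR or Novostar. Compounds were added first at 10 μM for % activation, then the EC80 agonist was applied after 6-20 min (human: Lys-Des-Arg9-bradykinin; rat: Des-Arg9-bradykinin). % inhibition is relative to maximum achievable inhibition, and IC50 comes from concentration series.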

[2] = target: T2, B1R receptor of the rat (CHO K1 cells stably transfected with the B1R gene of the rat) (Rattus norvegicus, UniProt P97583); experiment: Functional study on the bradykinin receptor 1 (B1R), Ca2+ fluorescence (Fluo-4) FLIPR/Novostar assay, rB1R cells; assay type: cell-based; details: CHO-K1, 10 μM, read-out: % inhibition (rat B1R) at 10 μM
T2 construct: expressed in transfected cells; host or cells: CHO K1 cells (Chinese hamster ovary), stably transfected
T2 sequence (P97583 1-337): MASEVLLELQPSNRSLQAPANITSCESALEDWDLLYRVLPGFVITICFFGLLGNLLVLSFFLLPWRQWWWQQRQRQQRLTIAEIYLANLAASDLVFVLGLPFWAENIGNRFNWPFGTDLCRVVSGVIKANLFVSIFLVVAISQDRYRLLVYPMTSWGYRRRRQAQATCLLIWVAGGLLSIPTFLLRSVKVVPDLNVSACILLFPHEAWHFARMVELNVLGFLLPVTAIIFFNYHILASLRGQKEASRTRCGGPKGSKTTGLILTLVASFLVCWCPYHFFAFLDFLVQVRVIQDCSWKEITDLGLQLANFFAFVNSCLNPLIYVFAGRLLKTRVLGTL
Outline: as §1

Row | SMILES | inhibition at 10 µM [1] | inhibition at 10 µM [2]
1 | Cc1cc(N2CCC(N(C)C(=O)c3ccc4c(c3)[C@H](NC(=O)c3cc(C)on3)CC4)CC2)nc(C)n1 [Example H-96, N-[(1R)-6-[[1-(2,6-Dimethyl-pyrimidin-4-yl)-piperidin-4-yl]-methyl-carbamoyl]-2,3-dihydro-1H-inden-1-yl]-5-methyl-isoxazole-3-carboxylic acid amide] | 100% | 104%
2 | CN(C(=O)c1ccc2c(c1)[C@H](NC(=O)c1ccccc1Cl)CC2)C1CCN(c2cc[n+]([O-])cc2)CC1 [Example H-98, (3R)-3-[(2-Chloro-benzoyl)amino]-N-methyl-N-[1-(1-oxido-pyridin-1-ium-4-yl)-piperidin-4-yl]-2,3-dihydro-1H-indene-5-carboxylic acid amide] | 100% | 105%
3 | CN(C(=O)c1ccc2c(c1)[C@H](NC(=O)c1ccccc1Cl)CC2)C1CCC(N2CCc3cnccc3C2)CC1 (stereo partly drawn) [Example H-99, (3R)-3-[(2-Chloro-benzoyl)amino]-N-methyl-N-[4-(1,2,3,4-tetrahydro-[2,6]naphthyridin-2-yl)-cyclohexyl]-2,3-dihydro-1H-indene-5-carboxylic acid amide] | 81% | 104%
4 | CN(C)c1cc(N2CCC(N(C)C(=O)c3ccc4c(c3)[C@H](NC(=O)c3ccccc3Cl)CC4)CC2)ccn1 [Example H-100, (3R)-3-[(2-Chloro-benzoyl)amino]-N-[1-(2-dimethylamino-pyridin-4-yl)-piperidin-4-yl]-N-methyl-2,3-dihydro-1H-indene-5-carboxylic acid amide] | 100% | 103%
5 | COc1ccc(N2CCC(N(C)C(=O)c3ccc4c(c3)[C@H](NC(=O)c3ccccc3Cl)CC4)CC2)cn1 [Example H-101, (3R)-3-[(2-Chloro-benzoyl)amino]-N-[1-(6-methoxy-pyridin-3-yl)-piperidin-4-yl]-N-methyl-2,3-dihydro-1H-indene-5-carboxylic acid amide] | 13% | 95%
6 | CN(C)c1ncc2c(n1)CCN(C1CCC(N(C)C(=O)c3ccc4c(c3)[C@H](NC(=O)c3ccccc3Cl)CC4)CC1)C2 (stereo partly drawn) [Example H-102, (3R)-3-[(2-Chloro-benzoyl)amino]-N-[4-(2-dimethylamino-5,6,7,8-tetrahydro-pyrido[4,3-d]pyrimidin-6-yl)-cyclohexyl]-N-methyl-2,3-dihydro-1H-indene-5-carboxylic acid amide] | 68% | 103%
7 | CN1CCN([C@@H]2CCC[C@H](N(C)C(=O)c3ccc4c(c3)[C@H](NC(=O)c3ccccc3Cl)CC4)C2)CC1 [Example H-103, (3R)-3-[(2-Chloro-benzoyl)amino]-N-methyl-N-[(1S,3R)-3-(4-methyl-piperazin-1-yl)-cyclohexyl]-2,3-dihydro-1H-indene-5-carboxylic acid amide] | 27% | 72%
8 | CN1CCN([C@@H]2CCC[C@H](N(C)C(=O)c3ccc4c(c3)[C@H](NS(=O)(=O)c3ccccc3Cl)CC4)C2)CC1 [Example H-104, (3R)-3-[[(2-Chlorophenyl)sulfonyl]amino]-N-methyl-N-[(1S,3R)-3-(4-methyl-piperazin-1-yl)-cyclohexyl]-2,3-dihydro-1H-indene-5-carboxylic acid amide] | 75% | 37%
9 | CN(C(=O)c1ccc2c(c1)C(N(C(=O)c1ccccc1Cl)C(C)(C)C)CC2)C1CCN(c2ccncc2)CC1 (stereo not drawn) [Example H-110, 3-[tert-Butyl-(2-chloro-benzoyl)-amino]-N-methyl-N-(1-pyridin-4-yl-piperidin-4-yl)-2,3-dihydro-1H-indene-5-carboxylic acid amide] | 23% | 26%
10 | CN1CCN([C@@H]2CCC[C@H](N(C)C(=O)c3ccc4c(c3)CC[C@H]4N3Cc4cccc(Cl)c4C3=O)C2)CC1 [Example H-111, (1R)-1-(4-Chloro-3-oxo-1,2-dihydro-isoindol-2-yl)-N-methyl-N-[(1S,3R)-3-(4-methyl-piperazin-1-yl)-cyclohexyl]-2,3-dihydro-1H-indene-5-carboxylic acid amide] | 65% | 10%
11 | COc1cc(N2CCC(N(C)C(=O)c3ccc4c(c3)[C@H](NC(=O)c3ccccc3Cl)CC4)CC2)ccn1 [Example H-112, (3R)-3-[(2-Chloro-benzoyl)amino]-N-[1-(2-methoxy-pyridin-4-yl)-piperidin-4-yl]-N-methyl-2,3-dihydro-1H-indene-5-carboxylic acid amide] | 99% | 99%
12 | CN(C)c1ccc(N2CCC(N(C)C(=O)c3ccc4c(c3)[C@H](NC(=O)c3ccccc3Cl)CC4)CC2)cn1 [Example H-113, (3R)-3-[(2-Chloro-benzoyl)amino]-N-[1-(6-dimethylamino-pyridin-3-yl)-piperidin-4-yl]-N-methyl-2,3-dihydro-1H-indene-5-carboxylic acid amide] | 98% | 100%
13 | CN(C(=O)c1ccc2c(c1)[C@H](NC(=O)c1ccccc1Cl)CC2)C1CCC(Oc2ccncc2)CC1 (stereo partly drawn) [Example H-114, (3R)-3-[(2-Chloro-benzoyl)amino]-N-methyl-N-(4-pyridin-4-yloxy-cyclohexyl)-2,3-dihydro-1H-indene-5-carboxylic acid amide] | 38% | 96%
14 | CN(C(=O)c1ccc2c(c1)[C@H](NC(=O)c1ccccc1Cl)CC2)C1CCCN(c2ccncc2)C1 (stereo partly drawn) [Example H-115, (3R)-3-[(2-Chloro-benzoyl)amino]-N-methyl-N-(1-pyridin-4-yl-piperidin-3-yl)-2,3-dihydro-1H-indene-5-carboxylic acid amide] | 13% | 63%

The next lines start with the values.

Row | inhibition at 10 µM [1] | inhibition at 10 µM [2] | SMILES
15 | 99% | 103% | CN(C(=O)c1ccc2c(c1)[C@H](NC(=O)c1ccccc1Cl)CC2)C1CCCN(c2ccncc2)CC1 (stereo partly drawn) [Example H-116, (3R)-3-[(2-Chloro-benzoyl)amino]-N-methyl-N-(1-pyridin-4-yl-azepan-4-yl)-2,3-dihydro-1H-indene-5-carboxylic acid amide]
16 | 99% | 105% | CN(C(=O)c1ccc2c(c1)[C@H](NC(=O)c1ccccc1Cl)CC2)C1CCN(c2ccncc2F)CC1 [Example H-117, (3R)-3-[(2-Chloro-benzoyl)amino]-N-[1-(3-fluoro-pyridin-4-yl)-piperidin-4-yl]-N-methyl-2,3-dihydro-1H-indene-5-carboxylic acid amide]
17 | 100% | 104% | CN(C)c1nccc(N2CCC(N(C)C(=O)c3ccc4c(c3)[C@H](NC(=O)c3ccccc3Cl)CC4)CC2)n1 [Example H-118, (3R)-3-[(2-Chloro-benzoyl)amino]-N-[1-(2-dimethylamino-pyrimidin-4-yl)-piperidin-4-yl]-N-methyl-2,3-dihydro-1H-indene-5-carboxylic acid amide]
18 | 91% | 52% | CC(C)CC(=O)N(C(C)C)[C@@H]1CCc2ccc(C(=O)N(C)C3CCN(c4ccnc(N(C)C)c4)CC3)cc21 [Example H-119, (3R)-N-[1-(2-Dimethylamino-pyridin-4-yl)-pipendin-4-yl]-3-[isopropyl-(3-methyl-butanoyl)-amino]-N-methyl-2,3-dihydro-1H-indene-5-carboxylic acid amide]
19 | 98% | 78% | CC(C)CC(=O)N(C(C)C)[C@@H]1CCc2ccc(C(=O)N(C)C3CCN(c4ccnc(N(C)C)n4)CC3)cc21 [Example H-120, (3R)-N-[1-(2-Dimethylamino-pyrimidin-4-yl)-pipendin-4-yl]-3-[isopropyl-(3-methyl-butanoyl)-amino]-N-methyl-2,3-dihydro-1H-indene-5-carboxylic acid amide]
20 | 100% | 103% | Cc1nccc(N2CCC(N(C)C(=O)c3ccc4c(c3)[C@H](NC(=O)c3ccccc3Cl)CC4)CC2)n1 [Example H-122, (3R)-3-[(2-Chloro-benzoyl)amino]-N-methyl-N-[1-(2-methyl-pyrimidin-4-yl)-piperidin-4-yl]-2,3-dihydro-1H-indene-5-carboxylic acid amide]
21 | 97% | 107% | CN(C(=O)c1ccc2c(c1)[C@H](NC(=O)c1ccccc1Cl)CC2)C1CCN(c2ccnc(C#N)c2)CC1 [Example H-123, (3R)-3-[(2-Chloro-benzoyl)amino]-N-[1-(2-cyano-pyridin-4-yl)-piperidin-4-yl]-N-methyl-2,3-dihydro-1H-indene-5-carboxylic acid amide]
